In ChEMBL document CHEMBL3228019, “Aminoglycoside antibiotics. 2. N,N-Dialkylkanamycins” (1979):
≈ marks a conversion by molar mass, not a printed value.

Experiments:
Assay type in all cases: functional
Providencia rettgeri [1] = assay: Antibacterial activity against Proteus rettgeri 9637 assessed as growth inhibition measured after overnight incubation by two-fold broth dilution method
Pseudomonas aeruginosa [2] = assay: Antibacterial activity against Pseudomonas aeruginosa 9843a assessed as growth inhibition measured after overnight incubation by two-fold broth dilution method
Klebsiella pneumoniae = assay: Antibacterial activity against Klebsiella pneumoniae 9977 assessed as growth inhibition measured after overnight incubation by two-fold broth dilution method
Pseudomonas aeruginosa [3] = assay: Antibacterial activity against Pseudomonas aeruginosa 20610 expressing aminoglycoside-3'-phosphotransferase and aminoglycoside-3-acetyltransferase-1 assessed as growth inhibition measured after overnight incubation by two-fold broth dilution method
Staphylococcus aureus [4] = assay: Antibacterial activity against Staphylococcus aureus 20240 expressing aminoglycoside-3'-phosphotransferase-4 assessed as growth inhibition measured after overnight incubation by two-fold broth dilution method
Enterobacter cloacae [5] = assay: Antibacterial activity against Enterobacter cloacae 20364 expressing aminoglycoside-3'-phosphotransferase-1 assessed as growth inhibition measured after overnight incubation by two-fold broth dilution method
Providencia rettgeri [6] = assay: Antibacterial activity against Proteus rettgeri 21207 expressing aminoglycoside-2'-acetyltransferase assessed as growth inhibition measured after overnight incubation by two-fold broth dilution method
Escherichia coli [7] = assay: Antibacterial activity against Escherichia coli 20732 expressing aminoglycoside-2''-nucleotidyltransferase assessed as growth inhibition measured after overnight incubation by two-fold broth dilution method
Pseudomonas aeruginosa [8] = assay: Antibacterial activity against Pseudomonas aeruginosa 20897 expressing aminoglycoside-3'-phosphotransferase-1 and aminoglycoside-6'-acetyltransferase assessed as growth inhibition measured after overnight incubation by two-fold broth dilution method
Enterobacter cloacae [9] = assay: Antibacterial activity against Enterobacter cloacae 9656 assessed as growth inhibition measured after overnight incubation by two-fold broth dilution method
Pseudomonas aeruginosa [10] = assay: Antibacterial activity against Pseudomonas aeruginosa 20653 expressing aminoglycoside-3'-phosphotransferase-4 assessed as growth inhibition measured after overnight incubation by two-fold broth dilution method
Escherichia coli [11] = assay: Antibacterial activity against Escherichia coli 21218 expressing aminoglycoside-6'-acetyltransferase assessed as growth inhibition measured after overnight incubation by two-fold broth dilution method
Escherichia coli [12] = assay: Antibacterial activity against Escherichia coli 20665 expressing aminoglycoside-3'-phosphotransferase-1 assessed as growth inhibition measured after overnight incubation by two-fold broth dilution method
Escherichia coli [13] = assay: Antibacterial activity against Escherichia coli 9632 assessed as growth inhibition measured after overnight incubation by two-fold broth dilution method
Pseudomonas aeruginosa [14] = assay: Antibacterial activity against kanamycin A/B impermeable Pseudomonas aeruginosa 21509 assessed as growth inhibition measured after overnight incubation by two-fold broth dilution method
Staphylococcus aureus [15] = assay: Antibacterial activity against Staphylococcus aureus 9537 assessed as growth inhibition measured after overnight incubation by two-fold broth dilution method

N[C@@H]1C[C@H](N)[C@@H](O[C@H]2O[C@@H]3CNC(=O)O[C@H]3[C@H](O)[C@H]2O)[C@H](O)[C@H]1O[C@H]1O[C@H](CO)[C@@H](O)[C@@H]2NC(=O)O[C@@H]12
MIC (Providencia rettgeri [1]): 63 µg/mL (≈ 117 µM)
MIC (Pseudomonas aeruginosa [2]): 32 µg/mL (≈ 59.6 µM)
MIC (Klebsiella pneumoniae): 63 µg/mL (≈ 117 µM)
MIC (Pseudomonas aeruginosa [3]): 32 µg/mL (≈ 59.6 µM)
MIC (Staphylococcus aureus [4]): 32 µg/mL (≈ 59.6 µM)
MIC (Enterobacter cloacae [5]): 125 µg/mL (≈ 233 µM)
MIC (Providencia rettgeri [6]): 125 µg/mL (≈ 233 µM)
MIC (Escherichia coli [7]): 125 µg/mL (≈ 233 µM)
MIC (Pseudomonas aeruginosa [8]): 32 µg/mL (≈ 59.6 µM)
MIC (Enterobacter cloacae [9]): 63 µg/mL (≈ 117 µM)
MIC (Pseudomonas aeruginosa [10]): 32 µg/mL (≈ 59.6 µM)
MIC (Escherichia coli [11]): 63 µg/mL (≈ 117 µM)
MIC (Escherichia coli [12]): 63 µg/mL (≈ 117 µM)
MIC (Escherichia coli [13]): 32 µg/mL (≈ 59.6 µM)
MIC (Pseudomonas aeruginosa [14]): 32 µg/mL (≈ 59.6 µM)
MIC (Staphylococcus aureus [15]): 32 µg/mL (≈ 59.6 µM)

CNC[C@H]1O[C@H](O[C@H]2[C@H](O)[C@@H](O[C@H]3O[C@H](CO)[C@@H](O)[C@H](NC)[C@H]3O)[C@H](N)C[C@@H]2N)[C@H](N)[C@@H](O)[C@@H]1O
MIC (Providencia rettgeri [1]): 16 µg/mL (≈ 31.3 µM)
MIC (Pseudomonas aeruginosa [2]): 8 µg/mL (≈ 15.6 µM)
MIC (Klebsiella pneumoniae): 4 µg/mL (≈ 7.82 µM)
MIC (Pseudomonas aeruginosa [3]): 8 µg/mL (≈ 15.6 µM)
MIC (Staphylococcus aureus [4]): 8 µg/mL (≈ 15.6 µM)
MIC (Enterobacter cloacae [5]): 63 µg/mL (≈ 123 µM)
MIC (Providencia rettgeri [6]): 63 µg/mL (≈ 123 µM)
MIC (Escherichia coli [7]): 63 µg/mL (≈ 123 µM)
MIC (Pseudomonas aeruginosa [8]): 8 µg/mL (≈ 15.6 µM)
MIC (Enterobacter cloacae [9]): 8 µg/mL (≈ 15.6 µM)
MIC (Pseudomonas aeruginosa [10]): 8 µg/mL (≈ 15.6 µM)
MIC (Escherichia coli [11]): 63 µg/mL (≈ 123 µM)
MIC (Escherichia coli [12]): 63 µg/mL (≈ 123 µM)
MIC (Escherichia coli [13]): 16 µg/mL (≈ 31.3 µM)
MIC (Pseudomonas aeruginosa [14]): 16 µg/mL (≈ 31.3 µM)
MIC (Staphylococcus aureus [15]): 4 µg/mL (≈ 7.82 µM)

CNC[C@H]1O[C@H](O[C@H]2[C@H](O)[C@@H](O[C@H]3O[C@H](CO)[C@@H](O)[C@H](NC)[C@H]3O)[C@H](N)C[C@@H]2N)[C@H](O)[C@@H](O)[C@@H]1O
MIC (Providencia rettgeri [1]): > 125 µg/mL
MIC (Pseudomonas aeruginosa [2]): > 125 µg/mL
MIC (Klebsiella pneumoniae): > 125 µg/mL
MIC (Pseudomonas aeruginosa [3]): > 125 µg/mL
MIC (Staphylococcus aureus [4]): > 125 µg/mL
MIC (Enterobacter cloacae [5]): > 125 µg/mL
MIC (Providencia rettgeri [6]): > 125 µg/mL
MIC (Escherichia coli [7]): > 125 µg/mL
MIC (Pseudomonas aeruginosa [8]): > 125 µg/mL
MIC (Enterobacter cloacae [9]): > 125 µg/mL
MIC (Pseudomonas aeruginosa [10]): > 125 µg/mL
MIC (Escherichia coli [11]): 125 µg/mL (≈ 244 µM)
MIC (Escherichia coli [12]): > 125 µg/mL
MIC (Escherichia coli [13]): > 125 µg/mL
MIC (Pseudomonas aeruginosa [14]): > 125 µg/mL
MIC (Staphylococcus aureus [15]): > 125 µg/mL

CCNC[C@H]1O[C@H](O[C@H]2[C@H](O)[C@@H](O[C@H]3O[C@H](CO)[C@@H](O)[C@H](NCC)[C@H]3O)[C@H](N)C[C@@H]2N)[C@H](O)[C@@H](O)[C@@H]1O
MIC (Providencia rettgeri [1]): 32 µg/mL (≈ 59.2 µM)
MIC (Pseudomonas aeruginosa [2]): > 125 µg/mL
MIC (Klebsiella pneumoniae): > 125 µg/mL
MIC (Pseudomonas aeruginosa [3]): > 125 µg/mL
MIC (Staphylococcus aureus [4]): > 125 µg/mL
MIC (Enterobacter cloacae [5]): > 125 µg/mL
MIC (Providencia rettgeri [6]): 4 µg/mL (≈ 7.4 µM)
MIC (Escherichia coli [7]): > 125 µg/mL
MIC (Pseudomonas aeruginosa [8]): > 125 µg/mL
MIC (Enterobacter cloacae [9]): 125 µg/mL (≈ 231 µM)
MIC (Pseudomonas aeruginosa [10]): > 125 µg/mL
MIC (Escherichia coli [11]): > 125 µg/mL
MIC (Escherichia coli [12]): > 125 µg/mL
MIC (Escherichia coli [13]): > 125 µg/mL
MIC (Pseudomonas aeruginosa [14]): > 125 µg/mL
MIC (Staphylococcus aureus [15]): 63 µg/mL (≈ 117 µM)

NC[C@H]1O[C@H](O[C@H]2[C@H](O)[C@@H](O[C@H]3O[C@H](CO)[C@@H](O)[C@H](N)[C@H]3O)[C@H](N)C[C@@H]2N)[C@H](N)[C@@H](O)[C@@H]1O [BEKANAMYCIN]
MIC (Providencia rettgeri [1]): 0.5 µg/mL (≈ 1.03 µM)
MIC (Pseudomonas aeruginosa [2]): 63 µg/mL (≈ 130 µM)
MIC (Klebsiella pneumoniae): 0.25 µg/mL (≈ 0.517 µM)
MIC (Pseudomonas aeruginosa [3]): 32 µg/mL (≈ 66.2 µM)
MIC (Staphylococcus aureus [4]): > 125 µg/mL
MIC (Enterobacter cloacae [5]): > 125 µg/mL
MIC (Providencia rettgeri [6]): 32 µg/mL (≈ 66.2 µM)
MIC (Escherichia coli [7]): 32 µg/mL (≈ 66.2 µM)
MIC (Pseudomonas aeruginosa [8]): > 125 µg/mL
MIC (Enterobacter cloacae [9]): 2 µg/mL (≈ 4.14 µM)
MIC (Pseudomonas aeruginosa [10]): > 125 µg/mL
MIC (Escherichia coli [11]): 32 µg/mL (≈ 66.2 µM)
MIC (Escherichia coli [12]): > 125 µg/mL
MIC (Escherichia coli [13]): 2 µg/mL (≈ 4.14 µM)
MIC (Pseudomonas aeruginosa [14]): > 125 µg/mL
MIC (Staphylococcus aureus [15]): 0.5 µg/mL (≈ 1.03 µM)

NC[C@@H]1O[C@@H](O[C@H]2[C@H](O)[C@@H](O[C@H]3O[C@H](CO)[C@@H](O)[C@H](N)[C@H]3O)[C@H](N)C[C@@H]2N)[C@@H](O)[C@H](O)[C@H]1O [KANAMYCIN A]
MIC (Providencia rettgeri [1]): 0.5 µg/mL (≈ 1.03 µM)
MIC (Pseudomonas aeruginosa [2]): 63 µg/mL (≈ 130 µM)
MIC (Klebsiella pneumoniae): 0.25 µg/mL (≈ 0.516 µM)
MIC (Pseudomonas aeruginosa [3]): 32 µg/mL (≈ 66 µM)
MIC (Staphylococcus aureus [4]): > 125 µg/mL
MIC (Enterobacter cloacae [5]): > 125 µg/mL
MIC (Providencia rettgeri [6]): 8 µg/mL (≈ 16.5 µM)
MIC (Escherichia coli [7]): 125 µg/mL (≈ 258 µM)
MIC (Pseudomonas aeruginosa [8]): > 125 µg/mL
MIC (Enterobacter cloacae [9]): 4 µg/mL (≈ 8.26 µM)
MIC (Pseudomonas aeruginosa [10]): > 125 µg/mL
MIC (Escherichia coli [11]): > 125 µg/mL
MIC (Escherichia coli [12]): > 125 µg/mL
MIC (Escherichia coli [13]): 4 µg/mL (≈ 8.26 µM)
MIC (Pseudomonas aeruginosa [14]): > 125 µg/mL
MIC (Staphylococcus aureus [15]): 1 µg/mL (≈ 2.06 µM)
